Results taken from US4147787A, “4,5,6,7-Tetrahydro-thieno[2,3-c]-and [3,2-c]-pyridines, and therapeutic compositions containing the same” (Parcor, priority 1977, dated 1979).

Tested on: thrombus
Experiment: Anti-thrombosis properties (metal helix in vena cava inferior, based on Friedman)
Assay type: in vivo, female Wistar rats
Details: from Table IV
Description: The technique used is based on that disclosed by Friedman (Amer. J. Med. Sci., 253, 83, 1967). […] A 1.8 cm long sharp metal helix is introduced in the lumen of the vessel at the level of the renal fork and "screwed" toward the iliac veins. Five hours later, the animal is again anesthetized with ether. […] The helix, together with the thrombus it retains, is taken out after carefully opening the vena cava throughout the length involved; it is then dried by repeated dabbing with filter paper and is weighed a first time. Immediately thereafter, the helix is freed from its thrombus in a physiological saline bath, and is then again dried and weighed. The difference in weight gives the weight of the thrombus. It was found on histological examination that these were white thrombi.
Different groups of 10 rats each are treated by gastric intubation with one of the test derivatives, 48 hours, 24 hours and 2 hours prior to the implantation of the metal helix. Samples were taken five hours after said implantation.
Identical tests were carried out with dipyridamole and acetylsalicylic acid.

Compound | anti-thrombosis activity (in words)
OCCN(CCO)c1nc(N2CCCCC2)c2nc(N(CCO)CCO)nc(N3CCCCC3)c2n1 [dipyridamole] | no activity
CC(=O)Oc1ccccc1C(=O)O [acetylsalicylic acid] | little activity
